Test results as given in patent US20240000872A1, “NOVEL BACTERIOPHAGE THAT LYSES ACINETOBACTER GENUS BACTERIA HAVING RESISTANCE TO ANTIBIOTICS” (priority 2020, published 2024).

Tested on: Acinetobacter baumannii strains
Experiment: Antibiotic susceptibility test (CLSI disk diffusion test method, read per CLSI 2016)
Assay type: cell-based
Method: (§1) Strain identification was performed using a kit such as AT 32 GN system (bioMérieux, Marcy l'Etoile, France). […] In Table 2 below, S, I, and R are the results obtained by evaluating susceptibility to the antibacterial agents, in which ‘S’ means susceptible, ‘I’ means intermediate, and ‘R’ means resistant.
as §1, with “as ATB” for “as AT”, “system (bioMédrieux,” for “system (bioMérieux,”, “Table 6” for “Table 2”
as §1, with “as ATB” for “as AT”, “Table 10” for “Table 2”, “susceptible, T” for “susceptible, ‘I’”

## CN(C)c1ccc(O)c2c1C[C@H]1C[C@H]3[C@H](N(C)C)C(O)=C(C(N)=O)C(=O)[C@@]3(O)C(O)=C1C2=O [Minocycline, minocycline]
Host strain YMC14/01/C29
  antibiotic susceptibility class: S
Host strain YMC14/01/IP122
  antibiotic susceptibility class: S
Host strain YMC14/01/L8
  antibiotic susceptibility class: S
Host strain YMC14/01/P31
  antibiotic susceptibility class: S
Host strain YMC14/01/P117
  antibiotic susceptibility class: S
Host strain YMC14/01/P224
  antibiotic susceptibility class: S
Host strain YMC14/01/P727
  antibiotic susceptibility class: S
Host strain YMC14/01/P728
  antibiotic susceptibility class: S
Host strain YMC14/01/R130
  antibiotic susceptibility class: S
Host strain YMC14/01/R160
  antibiotic susceptibility class: I
Host strain YMC14/01/R198
  antibiotic susceptibility class: I
Host strain YMC14/01/R257
  antibiotic susceptibility class: I
Host strain YMC14/01/R270
  antibiotic susceptibility class: S
Host strain YMC14/01/R324
  antibiotic susceptibility class: S
Host strain YMC14/01/R443
  antibiotic susceptibility class: I
Host strain YMC14/01/R451
  antibiotic susceptibility class: R
Host strain YMC14/01/R560
  antibiotic susceptibility class: R
Host strain YMC14/01/R617
  antibiotic susceptibility class: R
Host strain YMC14/01/R671
  antibiotic susceptibility class: I
Host strain YMC14/01/R732
  antibiotic susceptibility class: S
Host strain YMC14/01/R767
  antibiotic susceptibility class: S
Host strain YMC14/01/R904
  antibiotic susceptibility class: I
Host strain YMC14/01/R905
  antibiotic susceptibility class: I
Host strain YMC14/01/R921
  antibiotic susceptibility class: S
Host strain YMC14/01/R941
  antibiotic susceptibility class: S
Host strain YMC14/01/R958
  antibiotic susceptibility class: S
Host strain YMC14/01/R1006
  antibiotic susceptibility class: S
Host strain YMC14/01/R1199
  antibiotic susceptibility class: S
Host strain YMC14/01/R1659
  antibiotic susceptibility class: S
Host strain YMC14/01/R1722
  antibiotic susceptibility class: S
Host strain YMC14/01/R1752
  antibiotic susceptibility class: S
Host strain YMC14/01/R2429
  antibiotic susceptibility class: S
Host strain YMC14/01/R2572
  antibiotic susceptibility class: S
Host strain YMC14/01/R2855
  antibiotic susceptibility class: S
Host strain YMC14/01/R2945
  antibiotic susceptibility class: S
Host strain YMC14/01/R3007
  antibiotic susceptibility class: S
Host strain YMC14/01/R3129
  antibiotic susceptibility class: S
Host strain YMC14/01/R3317
  antibiotic susceptibility class: S
Host strain YMC14/01/R3474
  antibiotic susceptibility class: S
Host strain YMC14/01/R3574
  antibiotic susceptibility class: S
Host strain YMC14/01/U313
  antibiotic susceptibility class: S
Host strain YMC14/01/U318
  antibiotic susceptibility class: I
Host strain YMC14/02/L18
  antibiotic susceptibility class: S
Host strain YMC14/02/P47
  antibiotic susceptibility class: S
Host strain YMC14/02/R1860
  antibiotic susceptibility class: S
Host strain YMC14/02/R2417
  antibiotic susceptibility class: S
Host strain YMC14/02/R2599
  antibiotic susceptibility class: S
Host strain YMC14/02/R2668
  antibiotic susceptibility class: S
Host strain YMC14/02/R2758
  antibiotic susceptibility class: S
Host strain YMC14/02/R2781
  antibiotic susceptibility class: S
Host strain YMC14/02/R3106
  antibiotic susceptibility class: S
Host strain YMC14/02/R3419
  antibiotic susceptibility class: S
Host strain YMC14/02/U1607
  antibiotic susceptibility class: S
Host strain YMC14/03/L9
  antibiotic susceptibility class: S
Host strain YMC14/03/P471
  antibiotic susceptibility class: S
Host strain YMC14/03/R122
  antibiotic susceptibility class: S
Host strain YMC14/03/R217
  antibiotic susceptibility class: S
Host strain YMC14/03/R380
  antibiotic susceptibility class: S
Host strain YMC14/03/R618
  antibiotic susceptibility class: S
Host strain YMC14/03/R2144
  antibiotic susceptibility class: S
Host strain YMC14/03/U4616
  antibiotic susceptibility class: S
Host strain YMC14/04/R1078
  antibiotic susceptibility class: S
Host strain YMC14/04/R1080
  antibiotic susceptibility class: S
Host strain YMC14/06/R2359
  antibiotic susceptibility S/I/R: S
  susceptibility category (S/I/R): S
Host strain YMC14/08/R1169
  antibiotic susceptibility S/I/R: S
  susceptibility category (S/I/R): S
Host strain YMC14/08/T90
  antibiotic susceptibility S/I/R: S
  susceptibility category (S/I/R): S
Host strain YMC15/02/R436
  antibiotic susceptibility S/I/R: R
  susceptibility category (S/I/R): R
Host strain YMC15/02/T28
  antibiotic susceptibility S/I/R: S
  susceptibility category (S/I/R): S
Host strain YMC15/03/R1604
  antibiotic susceptibility S/I/R: S
  susceptibility category (S/I/R): S
Host strain YMC15/09/R1869
  antibiotic susceptibility S/I/R: S
  susceptibility category (S/I/R): S
Host strain YMC16/01/P11
  antibiotic susceptibility S/I/R: S
  susceptibility category (S/I/R): S
Host strain YMC16/01/R123
  antibiotic susceptibility S/I/R: S
  susceptibility category (S/I/R): S
Host strain YMC16/01/R198
  antibiotic susceptibility S/I/R: S
  susceptibility category (S/I/R): S
Host strain YMC16/01/R353
  antibiotic susceptibility S/I/R: S
  susceptibility category (S/I/R): S
Host strain YMC16/01/R380
  antibiotic susceptibility S/I/R: S
  susceptibility category (S/I/R): S
Host strain YMC16/01/R397
  antibiotic susceptibility S/I/R: S
  susceptibility category (S/I/R): S
Host strain YMC16/01/R405
  antibiotic susceptibility S/I/R: S
  susceptibility category (S/I/R): S
Host strain YMC16/03/R4461
  antibiotic susceptibility S/I/R: S
  susceptibility category (S/I/R): S
Host strain YMC16/05/R2210
  antibiotic susceptibility S/I/R: S
  susceptibility category (S/I/R): S
Host strain YMC16/07/R2512
  antibiotic susceptibility S/I/R: S
  susceptibility category (S/I/R): S
Host strain YMC16/09/R2471
  antibiotic susceptibility S/I/R: S
  susceptibility category (S/I/R): S
Host strain YMC16/10/R2537
  antibiotic susceptibility S/I/R: S
  susceptibility category (S/I/R): S
Host strain YMC16/12/B11422
  antibiotic susceptibility S/I/R: S
  susceptibility category (S/I/R): S
Host strain YMC16/12/B11449
  antibiotic susceptibility S/I/R: S
  susceptibility category (S/I/R): S
Host strain YMC16/12/B13325
  antibiotic susceptibility S/I/R: S
  susceptibility category (S/I/R): S
Host strain YMC16/12/P503
  antibiotic susceptibility S/I/R: R
  susceptibility category (S/I/R): R
Host strain YMC16/12/R4637
  antibiotic susceptibility S/I/R: R
  susceptibility category (S/I/R): R
Host strain YMC17/01/B8053
  antibiotic susceptibility S/I/R: S
  susceptibility category (S/I/R): S
Host strain YMC17/01/B10087
  antibiotic susceptibility S/I/R: S
  susceptibility category (S/I/R): S
Host strain YMC17/01/B12075
  antibiotic susceptibility S/I/R: S
  susceptibility category (S/I/R): S
Host strain YMC17/01/B13454
  antibiotic susceptibility S/I/R: S
  susceptibility category (S/I/R): S
Host strain YMC17/01/P518
  antibiotic susceptibility S/I/R: S
  susceptibility category (S/I/R): S
Host strain YMC17/01/R2812
  antibiotic susceptibility S/I/R: R
  susceptibility category (S/I/R): R
Host strain YMC17/02/B14
  susceptibility category (S/I/R): I
Host strain YMC17/02/B87
  susceptibility category (S/I/R): I
Host strain YMC17/02/B721
  antibiotic susceptibility S/I/R: S
  susceptibility category (S/I/R): S
Host strain YMC17/02/B4039
  antibiotic susceptibility S/I/R: S
  susceptibility category (S/I/R): S
Host strain YMC17/02/B4520
  antibiotic susceptibility S/I/R: S
  susceptibility category (S/I/R): S
Host strain YMC17/02/B4864
  antibiotic susceptibility S/I/R: S
  susceptibility category (S/I/R): S
Host strain YMC17/02/B8414
  antibiotic susceptibility S/I/R: S
  susceptibility category (S/I/R): S
Host strain YMC17/02/P523
  antibiotic susceptibility S/I/R: S
  susceptibility category (S/I/R): S
Host strain YMC17/02/R541
  antibiotic susceptibility S/I/R: R
  susceptibility category (S/I/R): R
Host strain YMC17/02/R2392
  antibiotic susceptibility S/I/R: S
  susceptibility category (S/I/R): S
Host strain YMC17/03/B4730
  antibiotic susceptibility S/I/R: S
  susceptibility category (S/I/R): S
Host strain YMC17/03/B5000
  susceptibility category (S/I/R): I
Host strain YMC17/03/P971
  antibiotic susceptibility S/I/R: S
  susceptibility category (S/I/R): S
Host strain YMC17/03/R348
  antibiotic susceptibility S/I/R: S
  susceptibility category (S/I/R): S
Host strain YMC17/03/R585
  antibiotic susceptibility S/I/R: R
  susceptibility category (S/I/R): R
Host strain YMC17/03/R1888
  antibiotic susceptibility S/I/R: S
  susceptibility category (S/I/R): S
Host strain YMC17/03/R3279
  antibiotic susceptibility S/I/R: S
  susceptibility category (S/I/R): S
Host strain YMC17/03/R4077
  antibiotic susceptibility S/I/R: S
  susceptibility category (S/I/R): S
Host strain YMC17/03/R4607
  antibiotic susceptibility S/I/R: R
  susceptibility category (S/I/R): R
Host strain YMC17/04/R488
  antibiotic susceptibility S/I/R: S
  susceptibility category (S/I/R): S
Host strain YMC17/04/R640
  antibiotic susceptibility S/I/R: S
  susceptibility category (S/I/R): S
Host strain YMC/17/05/R1095
  antibiotic susceptibility S/I/R: S
  susceptibility category (S/I/R): S
